Active and inactive are the calls of the source. The rule behind the calls is not given here.
Key:
[1] = Induction of TFEB nuclear translocation in human HeLa cells expressing EGFP at 10 uM measured at 6 hrs by fluorescence microscopic analysis; type: functional
[2] = Induction of TFEB nuclear translocation in human HeLa cells expressing EGFP at 30 uM measured at 6 hrs by fluorescence microscopic analysis; type: functional
HeLa = assay: Induction of lysosome biogenesis in human HeLa cells assessed as increase in number of acidified lysosomes at 10 uM incubated for 24 hrs by LysiTracker red staining based flow cytometry analysis; type: functional, cell-based
[3] = Induction of TFEB nuclear translocation in human HeLa cells expressing EGFP at 30 uM measured at 3 hrs by fluorescence microscopic analysis; type: functional
[4] = Induction of TFEB nuclear translocation in human HeLa cells expressing EGFP at 10 uM measured at 3 hrs by fluorescence microscopic analysis; type: functional

For `CC(C)N1CCc2cc3c(cc2C1CCc1c[nH]c2ccccc12)OCO3` (stereo not given), the Activity [1] was 33%, the Activity [2] was 75% and the Activity (HeLa) was “Active”. For the same molecule, the Activity [3] was 70% and the Activity [4] was 22%.
